From ChEMBL document CHEMBL5291721, “A preclinical secondary pharmacology resource illuminates target-adverse drug reaction associations of marketed drugs” (Nat Commun, 2023)

Key:
[1] = target: T1, Peroxisome proliferator-activated receptor gamma (Homo sapiens, UniProt P37231); assay type: functional
T1 sequence (P37231 whole entry): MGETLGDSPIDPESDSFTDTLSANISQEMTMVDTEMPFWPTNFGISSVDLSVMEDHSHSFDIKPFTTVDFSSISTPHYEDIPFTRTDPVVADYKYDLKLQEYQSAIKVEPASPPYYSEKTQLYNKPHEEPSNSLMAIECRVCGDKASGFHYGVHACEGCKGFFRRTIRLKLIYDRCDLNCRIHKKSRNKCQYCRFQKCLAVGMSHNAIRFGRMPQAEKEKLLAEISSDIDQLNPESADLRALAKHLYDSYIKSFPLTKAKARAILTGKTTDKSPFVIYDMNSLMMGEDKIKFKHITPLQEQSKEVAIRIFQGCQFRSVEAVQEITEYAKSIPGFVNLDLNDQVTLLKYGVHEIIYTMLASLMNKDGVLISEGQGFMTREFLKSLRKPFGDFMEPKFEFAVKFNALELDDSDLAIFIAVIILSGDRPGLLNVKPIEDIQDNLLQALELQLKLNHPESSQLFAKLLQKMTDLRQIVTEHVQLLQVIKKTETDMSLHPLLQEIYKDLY

[2] = target: T2, Gamma-aminobutyric acid receptor subunit alpha-1/alpha-2/beta-2/gamma-2 (Homo sapiens, UniProt P14867+P18507+P47869+P47870); assay type: functional, cell-based
[3] = target: Sodium-dependent serotonin transporter (Homo sapiens, UniProt P31645)
[4] = target: T2, Gamma-aminobutyric acid receptor subunit alpha-1/alpha-2/beta-2/gamma-2; assay type: functional, cell-based; remark: listed apart in the source
[5] = target: T3, Alpha-2B adrenergic receptor (Homo sapiens, UniProt P18089)
T3 sequence (P18089 whole entry): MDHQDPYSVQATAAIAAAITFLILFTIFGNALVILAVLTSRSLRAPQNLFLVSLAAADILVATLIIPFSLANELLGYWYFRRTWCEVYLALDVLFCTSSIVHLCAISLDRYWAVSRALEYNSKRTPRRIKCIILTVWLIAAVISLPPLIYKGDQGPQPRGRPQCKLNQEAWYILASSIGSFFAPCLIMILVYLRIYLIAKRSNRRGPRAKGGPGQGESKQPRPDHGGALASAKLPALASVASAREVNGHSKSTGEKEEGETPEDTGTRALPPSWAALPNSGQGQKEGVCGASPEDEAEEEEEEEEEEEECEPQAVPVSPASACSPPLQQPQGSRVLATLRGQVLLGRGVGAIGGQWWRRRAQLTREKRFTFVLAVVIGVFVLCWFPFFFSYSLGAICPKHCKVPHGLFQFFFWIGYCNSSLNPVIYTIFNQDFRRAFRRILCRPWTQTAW

[6] = target: Melanocortin receptor 4 (Homo sapiens, UniProt P32245)
[7] = target: Beta-3 adrenergic receptor (Homo sapiens, UniProt P13945)
[8] = target: T4, Progesterone receptor (Homo sapiens, UniProt P06401)
T4 sequence (P06401 whole entry): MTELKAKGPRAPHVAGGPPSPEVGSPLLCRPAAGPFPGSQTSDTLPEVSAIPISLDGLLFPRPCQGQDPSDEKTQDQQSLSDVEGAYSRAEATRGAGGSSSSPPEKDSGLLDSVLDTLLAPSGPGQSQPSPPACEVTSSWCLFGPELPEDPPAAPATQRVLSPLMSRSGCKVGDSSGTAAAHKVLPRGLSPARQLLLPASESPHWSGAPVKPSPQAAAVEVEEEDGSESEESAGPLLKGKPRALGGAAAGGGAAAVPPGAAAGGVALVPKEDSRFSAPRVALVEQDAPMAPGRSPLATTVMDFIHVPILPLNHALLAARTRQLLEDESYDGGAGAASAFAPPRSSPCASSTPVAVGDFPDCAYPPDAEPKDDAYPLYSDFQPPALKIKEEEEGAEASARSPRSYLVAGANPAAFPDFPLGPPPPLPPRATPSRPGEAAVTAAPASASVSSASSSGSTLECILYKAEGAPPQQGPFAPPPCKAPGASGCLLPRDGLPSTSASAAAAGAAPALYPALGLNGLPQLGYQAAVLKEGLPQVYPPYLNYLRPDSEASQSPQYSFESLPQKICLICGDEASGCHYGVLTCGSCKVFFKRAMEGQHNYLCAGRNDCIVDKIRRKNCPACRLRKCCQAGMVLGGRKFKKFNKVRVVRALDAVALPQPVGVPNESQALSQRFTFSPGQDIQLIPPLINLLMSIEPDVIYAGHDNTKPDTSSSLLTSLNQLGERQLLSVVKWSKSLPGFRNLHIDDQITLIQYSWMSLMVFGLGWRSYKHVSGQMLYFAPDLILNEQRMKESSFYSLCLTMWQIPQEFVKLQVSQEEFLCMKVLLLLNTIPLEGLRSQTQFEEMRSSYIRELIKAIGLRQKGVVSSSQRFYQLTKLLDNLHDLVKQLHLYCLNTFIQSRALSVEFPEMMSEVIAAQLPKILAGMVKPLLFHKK

[9] = target: T5, Alpha-1A adrenergic receptor (Homo sapiens, UniProt P35348)
T5 sequence (P35348 whole entry): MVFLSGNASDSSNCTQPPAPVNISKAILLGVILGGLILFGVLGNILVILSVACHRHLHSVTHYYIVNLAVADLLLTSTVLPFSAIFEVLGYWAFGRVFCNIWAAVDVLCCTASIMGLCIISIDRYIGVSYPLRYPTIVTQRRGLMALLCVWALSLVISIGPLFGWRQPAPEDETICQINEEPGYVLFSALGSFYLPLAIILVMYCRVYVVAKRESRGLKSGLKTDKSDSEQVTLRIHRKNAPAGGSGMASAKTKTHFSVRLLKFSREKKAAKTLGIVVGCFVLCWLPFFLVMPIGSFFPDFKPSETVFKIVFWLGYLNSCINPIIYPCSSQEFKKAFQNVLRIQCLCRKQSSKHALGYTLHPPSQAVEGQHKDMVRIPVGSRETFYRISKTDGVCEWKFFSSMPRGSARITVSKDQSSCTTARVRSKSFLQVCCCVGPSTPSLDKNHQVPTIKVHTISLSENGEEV

[10] = target: Cannabinoid receptor 1 (Homo sapiens, UniProt P21554)
[11] = target: 5-hydroxytryptamine receptor 2B (Homo sapiens, UniProt P41595)
Also: assay procedure not described here.

Sequence of Melanocortin receptor 4 (P32245 whole entry): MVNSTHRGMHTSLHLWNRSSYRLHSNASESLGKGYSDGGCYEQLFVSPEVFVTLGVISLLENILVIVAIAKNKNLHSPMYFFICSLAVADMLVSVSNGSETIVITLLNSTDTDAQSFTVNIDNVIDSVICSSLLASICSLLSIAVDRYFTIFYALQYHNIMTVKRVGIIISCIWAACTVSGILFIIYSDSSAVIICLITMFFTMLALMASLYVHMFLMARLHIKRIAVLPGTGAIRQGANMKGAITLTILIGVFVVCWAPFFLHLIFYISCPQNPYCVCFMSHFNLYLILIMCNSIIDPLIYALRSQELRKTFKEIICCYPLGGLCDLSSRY
T2 sequence (P14867 whole entry): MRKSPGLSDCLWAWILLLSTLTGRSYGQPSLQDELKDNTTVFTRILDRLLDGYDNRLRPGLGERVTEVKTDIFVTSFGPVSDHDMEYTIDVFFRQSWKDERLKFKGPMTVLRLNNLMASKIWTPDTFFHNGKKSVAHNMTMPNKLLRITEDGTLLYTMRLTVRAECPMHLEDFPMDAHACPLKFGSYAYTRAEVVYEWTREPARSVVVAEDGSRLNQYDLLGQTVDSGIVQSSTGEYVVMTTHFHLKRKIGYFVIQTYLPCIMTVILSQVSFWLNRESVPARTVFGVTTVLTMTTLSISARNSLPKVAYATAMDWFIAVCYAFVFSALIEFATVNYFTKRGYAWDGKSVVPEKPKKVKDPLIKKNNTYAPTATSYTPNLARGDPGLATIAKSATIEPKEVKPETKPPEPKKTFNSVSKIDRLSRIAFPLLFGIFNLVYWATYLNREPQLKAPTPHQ
T2 sequence (P47870 whole entry): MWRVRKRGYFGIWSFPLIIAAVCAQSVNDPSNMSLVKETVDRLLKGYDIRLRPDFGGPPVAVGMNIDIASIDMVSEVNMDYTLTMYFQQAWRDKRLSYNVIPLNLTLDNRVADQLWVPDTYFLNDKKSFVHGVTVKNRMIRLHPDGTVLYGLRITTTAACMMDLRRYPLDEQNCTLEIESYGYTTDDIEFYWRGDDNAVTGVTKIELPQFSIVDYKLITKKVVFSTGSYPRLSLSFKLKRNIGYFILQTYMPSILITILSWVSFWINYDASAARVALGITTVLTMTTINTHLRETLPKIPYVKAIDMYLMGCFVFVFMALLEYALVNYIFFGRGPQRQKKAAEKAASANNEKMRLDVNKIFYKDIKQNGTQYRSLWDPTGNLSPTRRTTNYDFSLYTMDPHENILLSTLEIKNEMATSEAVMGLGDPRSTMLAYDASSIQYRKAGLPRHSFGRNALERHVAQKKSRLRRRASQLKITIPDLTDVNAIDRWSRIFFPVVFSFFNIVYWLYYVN
T2 sequence (P18507 whole entry): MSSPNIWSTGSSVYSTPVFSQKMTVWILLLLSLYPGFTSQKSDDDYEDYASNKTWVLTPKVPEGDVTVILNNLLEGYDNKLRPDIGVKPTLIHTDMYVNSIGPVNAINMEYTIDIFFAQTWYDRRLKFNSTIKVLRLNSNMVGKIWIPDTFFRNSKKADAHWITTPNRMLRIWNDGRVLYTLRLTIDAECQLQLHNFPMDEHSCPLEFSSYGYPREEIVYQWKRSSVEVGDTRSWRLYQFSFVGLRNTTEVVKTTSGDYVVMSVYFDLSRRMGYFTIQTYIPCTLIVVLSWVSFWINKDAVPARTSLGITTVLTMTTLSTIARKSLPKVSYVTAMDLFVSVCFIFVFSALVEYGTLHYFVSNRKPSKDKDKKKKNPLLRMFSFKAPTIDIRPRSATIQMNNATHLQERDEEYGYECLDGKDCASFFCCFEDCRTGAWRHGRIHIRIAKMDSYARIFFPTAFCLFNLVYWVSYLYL
T2 sequence (P47869 whole entry): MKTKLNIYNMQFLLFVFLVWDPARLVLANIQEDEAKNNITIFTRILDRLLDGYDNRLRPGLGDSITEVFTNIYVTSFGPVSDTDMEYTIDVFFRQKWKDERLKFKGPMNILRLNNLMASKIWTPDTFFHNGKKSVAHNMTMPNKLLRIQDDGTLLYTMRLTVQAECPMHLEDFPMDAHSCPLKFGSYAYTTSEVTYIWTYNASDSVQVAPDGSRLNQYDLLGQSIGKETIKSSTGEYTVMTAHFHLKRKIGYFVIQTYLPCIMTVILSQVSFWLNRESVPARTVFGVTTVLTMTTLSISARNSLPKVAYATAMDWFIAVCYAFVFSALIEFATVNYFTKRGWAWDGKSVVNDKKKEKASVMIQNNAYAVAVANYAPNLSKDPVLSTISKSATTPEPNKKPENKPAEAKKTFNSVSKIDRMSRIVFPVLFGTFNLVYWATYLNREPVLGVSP
Sequence of Beta-3 adrenergic receptor (P13945 whole entry): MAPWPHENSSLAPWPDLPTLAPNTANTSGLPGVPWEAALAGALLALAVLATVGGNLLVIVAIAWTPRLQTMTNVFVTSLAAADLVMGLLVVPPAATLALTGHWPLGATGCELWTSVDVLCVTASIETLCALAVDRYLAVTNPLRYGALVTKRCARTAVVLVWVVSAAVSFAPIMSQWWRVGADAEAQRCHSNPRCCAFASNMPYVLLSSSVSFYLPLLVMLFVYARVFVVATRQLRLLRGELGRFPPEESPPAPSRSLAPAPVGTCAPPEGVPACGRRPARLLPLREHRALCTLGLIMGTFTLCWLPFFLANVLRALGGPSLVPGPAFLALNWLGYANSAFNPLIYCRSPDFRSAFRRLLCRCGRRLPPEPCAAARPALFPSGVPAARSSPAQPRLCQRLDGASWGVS
Sequence of 5-hydroxytryptamine receptor 2B (P41595 whole entry): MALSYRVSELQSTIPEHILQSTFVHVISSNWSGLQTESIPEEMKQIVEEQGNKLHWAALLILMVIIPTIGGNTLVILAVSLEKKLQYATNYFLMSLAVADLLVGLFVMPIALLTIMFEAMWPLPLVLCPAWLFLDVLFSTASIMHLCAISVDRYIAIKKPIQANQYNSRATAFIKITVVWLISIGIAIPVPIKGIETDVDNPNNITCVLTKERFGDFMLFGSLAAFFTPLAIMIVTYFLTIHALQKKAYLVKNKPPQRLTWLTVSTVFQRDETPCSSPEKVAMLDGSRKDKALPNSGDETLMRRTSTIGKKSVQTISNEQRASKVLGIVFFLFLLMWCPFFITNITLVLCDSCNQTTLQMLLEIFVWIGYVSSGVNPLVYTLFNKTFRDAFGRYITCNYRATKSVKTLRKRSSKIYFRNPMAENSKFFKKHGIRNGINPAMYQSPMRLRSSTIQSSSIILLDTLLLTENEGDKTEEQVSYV
Sequence of Sodium-dependent serotonin transporter (P31645 whole entry): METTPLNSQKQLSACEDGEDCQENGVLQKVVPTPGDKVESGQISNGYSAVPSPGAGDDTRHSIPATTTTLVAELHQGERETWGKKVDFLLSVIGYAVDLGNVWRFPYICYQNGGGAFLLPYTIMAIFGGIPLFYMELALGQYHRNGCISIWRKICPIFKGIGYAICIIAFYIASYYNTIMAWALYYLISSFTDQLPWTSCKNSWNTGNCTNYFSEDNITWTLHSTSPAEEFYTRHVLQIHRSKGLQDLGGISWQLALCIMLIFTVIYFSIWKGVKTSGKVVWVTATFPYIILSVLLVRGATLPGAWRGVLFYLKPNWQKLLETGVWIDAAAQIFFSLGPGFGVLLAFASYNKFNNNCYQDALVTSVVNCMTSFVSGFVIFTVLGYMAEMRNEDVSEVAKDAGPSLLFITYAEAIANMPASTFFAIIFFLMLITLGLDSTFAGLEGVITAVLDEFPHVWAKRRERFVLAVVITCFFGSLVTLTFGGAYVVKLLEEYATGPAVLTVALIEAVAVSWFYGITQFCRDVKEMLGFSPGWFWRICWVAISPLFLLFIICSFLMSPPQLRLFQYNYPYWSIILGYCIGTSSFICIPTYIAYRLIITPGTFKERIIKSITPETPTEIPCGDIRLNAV
Sequence of Cannabinoid receptor 1 (P21554 whole entry): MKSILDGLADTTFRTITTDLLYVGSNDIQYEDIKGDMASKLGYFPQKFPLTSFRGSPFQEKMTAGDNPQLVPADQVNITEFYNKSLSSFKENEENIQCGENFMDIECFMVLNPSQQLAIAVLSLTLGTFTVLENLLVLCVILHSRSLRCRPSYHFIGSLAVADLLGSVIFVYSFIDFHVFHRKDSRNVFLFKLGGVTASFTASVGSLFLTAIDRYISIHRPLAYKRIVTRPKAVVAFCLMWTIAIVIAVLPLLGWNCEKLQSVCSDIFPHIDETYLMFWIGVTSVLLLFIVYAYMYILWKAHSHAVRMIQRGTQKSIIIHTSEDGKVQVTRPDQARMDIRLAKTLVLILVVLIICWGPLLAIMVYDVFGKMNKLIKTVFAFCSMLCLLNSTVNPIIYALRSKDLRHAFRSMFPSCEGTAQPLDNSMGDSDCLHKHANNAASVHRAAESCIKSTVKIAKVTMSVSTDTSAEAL

Row | SMILES | AC50 [1] [µM] | AC50 [2] [µM] | AC50 [3] [µM] | AC50 [4] [µM] | AC50 [5] [µM] | AC50 [6] [µM] | AC50 [7] [µM] | AC50 [8] [µM] | AC50 [9] [µM] | AC50 [10] [µM] | AC50 [11] [µM]
1 | CC(=N)N1CC[C@H](SC2=C(C(=O)O)N3C(=O)[C@H]([C@@H](C)O)[C@H]3C2)C1 | > 300 | > 2400 | 37 | > 800 | 300 | – | – | – | – | – | –
2 | CO/N=C(\C(=O)N[C@@H]1C(=O)N2C(C(=O)O)=C(COC(N)=O)CS[C@H]12)c1ccco1 [CEFUROXIME] | > 30 | > 30 | > 30 | > 30 | > 30 | – | – | – | – | – | –
3 | COC(=O)[C@H](c1ccccc1Cl)N1CCc2sccc2C1 [CLOPIDOGREL] | > 30 | > 30 | – | > 30 | – | > 30 | > 30 | > 30 | > 10 | > 30 | > 10
4 | C[C@H]1Oc2cc(cnc2N)-c2c(nn(C)c2C#N)CN(C)C(=O)c2ccc(F)cc21 [LORLATINIB] | > 30 | > 30 | > 30 | > 30 | > 30 | – | – | – | – | – | –
5 | CN(C)c1cc(CNCC(C)(C)C)c(O)c2c1C[C@H]1C[C@H]3[C@H](N(C)C)C(O)=C(C(N)=O)C(=O)[C@@]3(O)C(O)=C1C2=O [OMADACYCLINE] | > 30 | > 30 | 11 | > 30 | 30 | – | – | – | – | – | –
6 | CC(C)C[C@H](CN)CC(=O)O [PREGABALIN] | > 30 | > 30 | > 30 | > 30 | > 30 | > 30 | > 30 | 20.2 | – | > 30 | –
7 | CCOc1cc(CC(=O)N[C@@H](CC(C)C)c2ccccc2N2CCCCC2)ccc1C(=O)O [REPAGLINIDE] | > 30 | > 30 | > 30 | > 30 | > 30 | – | – | – | – | – | –
8 | CCCN(CCC)CCc1cccc2c1CC(=O)N2 [ROPINIROLE] | > 30 | > 30 | > 30 | > 30 | – | > 30 | > 30 | > 30 | > 10 | > 10 | 27
9 | CCCN(CCc1cccs1)[C@H]1CCc2c(O)cccc2C1 [ROTIGOTINE] | > 30 | > 30 | 7.8 | > 30 | 0.13 | – | – | – | – | – | –
10 | CC(=O)S[C@@H]1CC2=CC(=O)CC[C@]2(C)[C@H]2CC[C@@]3(C)[C@@H](CC[C@@]34CCC(=O)O4)[C@H]12 [SPIRONOLACTONE] | > 30 | > 30 | – | > 30 | – | > 30 | > 30 | – | 10.4 | > 10 | > 10
